Columns and labels:
aurora B = aurora B (Homo sapiens, UniProt Q96GD4); assay: radioisotope-based P81 filter-binding assay, aurora B kinase; type: biochemical; settings: averaged from two independent dose-response curves; read-out: Enzyme assay IC50 Aur B
Description: (§1) Compounds of formula (I)-(IV) were evaluated for abilities in inhibiting protein kinases aurora B and FLT-3 activity using radioisotope-based P81 filter-binding assay (Table 1).

FLT-3 = molecular target: T1, FLT-3 (Homo sapiens, UniProt P36888); assay: radioisotope-based P81 filter-binding assay, FLT-3 kinase; type: biochemical; settings: averaged from two independent dose-response curves; read-out: Enzyme assay IC50 FLT-3
T1 sequence (P36888 27-993): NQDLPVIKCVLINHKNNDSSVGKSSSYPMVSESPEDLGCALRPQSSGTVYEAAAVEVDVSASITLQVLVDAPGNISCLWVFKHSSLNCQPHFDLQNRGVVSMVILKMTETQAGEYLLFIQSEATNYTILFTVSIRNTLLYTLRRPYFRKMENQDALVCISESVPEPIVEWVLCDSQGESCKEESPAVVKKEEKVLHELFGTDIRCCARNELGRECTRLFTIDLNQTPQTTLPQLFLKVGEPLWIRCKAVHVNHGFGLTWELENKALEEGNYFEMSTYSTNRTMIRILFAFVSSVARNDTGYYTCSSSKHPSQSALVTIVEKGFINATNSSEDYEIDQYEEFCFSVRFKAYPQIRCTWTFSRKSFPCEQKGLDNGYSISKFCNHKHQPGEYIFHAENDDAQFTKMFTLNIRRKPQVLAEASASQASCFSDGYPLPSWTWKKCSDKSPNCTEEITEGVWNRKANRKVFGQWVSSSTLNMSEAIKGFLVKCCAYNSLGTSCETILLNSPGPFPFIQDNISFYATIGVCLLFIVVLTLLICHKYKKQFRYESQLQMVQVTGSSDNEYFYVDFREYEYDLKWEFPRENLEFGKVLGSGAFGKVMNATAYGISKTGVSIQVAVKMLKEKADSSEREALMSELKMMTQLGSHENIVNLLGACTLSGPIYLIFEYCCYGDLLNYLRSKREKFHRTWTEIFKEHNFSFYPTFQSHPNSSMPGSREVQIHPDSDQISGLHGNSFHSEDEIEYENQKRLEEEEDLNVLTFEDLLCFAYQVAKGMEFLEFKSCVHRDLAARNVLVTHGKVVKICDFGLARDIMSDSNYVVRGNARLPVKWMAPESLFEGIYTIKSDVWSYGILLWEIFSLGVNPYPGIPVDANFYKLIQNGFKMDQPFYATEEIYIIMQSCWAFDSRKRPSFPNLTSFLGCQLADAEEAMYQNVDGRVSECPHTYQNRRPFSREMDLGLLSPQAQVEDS
Description: as §1

[1] = system: A549 human lung carcinoma cells; assay: anti-proliferation, SRB colorimetric assay, A549; type: cell-based; settings: concentration required for 50% growth inhibition, read-out: IC50 (μM, mean ± S.D.)
[2] = system: HCT116 human colorectal carcinoma cells; assay: anti-proliferation, SRB colorimetric assay, HCT116; type: cell-based; settings: HCT-116, concentration required for 50% growth inhibition, read-out: IC50 (μM, mean ± S.D.)
Description: (§2) HCT116 human colorectal carcinoma cells (Table 3), HepG2 human hepatocellular carcinoma cells (Table 4), and MV4-11 human acute myelomonocytic leukemia cells (Table 5). Cells were treated with the test compound and the concentration required for 50% growth inhibition (IC50) determined by sulfomodamine B (SRB) colorimetric assay.

[3] = system: HepG2 human hepatocellular carcinoma cells; assay: anti-proliferation, SRB colorimetric assay, HepG2; type: cell-based; settings: concentration required for 50% growth inhibition, read-out: IC50 (μM, mean ± S.D.)
Text: HCT116 human colorectal carcinoma cells (Table 3), HepG2 human hepatocellular carcinoma cells (Table 4), and MV4-11 human acute myelomonocytic leukemia cells (Table 5).

[4] = system: MV4-11 human acute myelomonocytic leukemia cells; assay: anti-proliferation, SRB colorimetric assay, MV4-11; type: cell-based; settings: concentration required for 50% growth inhibition
Description: as §2

Huh7 cancer cell line = assay: in vivo efficacy, Huh7 xenografts in SCID mice; settings: established xenografts of Huh7 cancer cell line in female SCID mice

Sequence of aurora B (Q96GD4 whole entry): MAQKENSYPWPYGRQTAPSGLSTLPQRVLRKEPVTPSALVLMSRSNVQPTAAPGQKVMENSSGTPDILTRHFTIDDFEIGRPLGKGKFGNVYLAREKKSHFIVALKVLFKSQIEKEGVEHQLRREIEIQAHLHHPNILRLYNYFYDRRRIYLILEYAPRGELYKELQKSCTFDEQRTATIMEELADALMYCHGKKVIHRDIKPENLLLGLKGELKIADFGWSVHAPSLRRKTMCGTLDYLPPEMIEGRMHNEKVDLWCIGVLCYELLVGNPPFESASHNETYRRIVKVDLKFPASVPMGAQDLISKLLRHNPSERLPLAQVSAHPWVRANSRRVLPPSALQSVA

| SMILES | IC50 (aurora B) [nM] | IC50 (FLT-3) [nM] | IC50 [1] [µM] | IC50 [2] [µM] | IC50 [3] [µM] | IC50 [4] [nM] | tumor size (Huh7 cancer cell line) | melting point [°C] |
| --- | --- | --- | --- | --- | --- | --- | --- | --- |
| O=C1Nc2cc(NC(=O)c3c[nH]cc(-c4ccccc4F)c3=O)ccc2/C1=C/c1ccc[nH]1 [D134, (Z)—N-(3-((1H-pyrrol-2-yl)methylene)-2-oxoindolin-6-yl)-4-oxo-5-(2-fluorophenyl)-1,4-dihydropyridine-3-carboxamide] | 25.5 | 100 | 0.46 ± 0.06 | 0.73 ± 0.09 | 0.6 ± 0.07 | 13.2 | suppressed the tumor size | > 300 |
| O=C1Nc2cc(NC(=O)c3c[nH]cc(-c4ccc(F)cc4F)c3=O)ccc2/C1=C/c1ccc[nH]1 [D135, (Z)—N-(3-((1H-pyrrol-2-yl)methylene)-2-oxoindolin-6-yl)-4-oxo-5-(2,4-difluorophenyl)-1,4-dihydropyridine-3-carboxamide] | 64.5 | 50.1 | 0.59 ± 0.09 | 0.78 ± 0.1 | 0.56 ± 0.16 | 4.25 |  | > 300 |
| O=C1Nc2cc(NC(=O)c3c[nH]cc(-c4ccc(C(F)(F)F)cc4)c3=O)ccc2/C1=C/c1ccc[nH]1 [D133] | 348 | 100 | 0.45 ± 0.08 | 0.65 ± 0.04 | 0.73 ± 0.03 | 5.9 |  | > 300 |
| Cc1ccc(-c2c[nH]cc(C(=O)Nc3ccc4c(c3)NC(=O)/C4=C\c3ccc[nH]3)c2=O)cc1 [D131, (Z)—N-(3-((1H-pyrrol-2-yl)methylene)-2-oxoindolin-6-yl)-5-p-tolyl-4-oxo-1,4-dihydropyridine-3-carboxamide] | 63.2 | 74.7 | 0.52 ± 0.03 | 0.56 ± 0.03 | 0.71 ± 0.07 | 18.4 |  | > 300 |

Reference: US8946282B2, “Indolin-2-one derivatives as protein kinase inhibitors” (Annji Pharmaceutical Co., Ltd., priority 2012, dated 2015)
